Paper PMC8533149 (Biomolecules, 2021)
Read-outs that look alike come from different tables or passages of the source.

What was measured:
[1] = tested on: HIV-1 LTR-III G-quadruplex (FAM/TAMRA-labeled LTR-III); experiment: FRET melting assay, LTR-III G4; format: binding; conditions: for LTR-III (average): Table S12, average stabilization; for LTR III stabilization: Figure 7, stabilization group; for LTR-III ΔTm: Table S1 primary screening, ligand:ODN 50:1, singlicate
Outline: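 Melting is followed by FAM fluorescence (ex 495/em 520 nm) while heating at 1 °C/min from 30 to 95 °C. Labelled ODN at 0.5 μM, pre-annealed in 10 mM Li cacodylate, 100 mM KCl, pH 7.4, mixed with ligand at 50:1 (25 μM), or 20:1 and 2:1 for titration. ΔTm is relative to the 0.25% DMSO buffer control.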

[2] = Cytotoxicity test; format: cell-based; conditions: human; Figure 7; MT4 cells
Method: (§1) Green monkey kidney (Vero, Beach, FL, USA) cell line was maintained in 2 × Eagle MEM (“Chumakov FSC R&D IBP RAS”, Russia) with 5% FBS with L-glutamine, penicillin and streptomycin. […] HIV-1 strain NL4-3 was obtained via cell transfection with pNL4-3 3 (ARP2006, NIBSC, Potters Bar, UK).
(§2) MT4 cell suspensions were added to the wells with compound dilutions and DMSO control (approx. 2 × 10^4 cells per well). […] All experimental procedures were performed in two replicates and were repeated two to four times. Mean and SD were calculated with OriginPro 8 (OriginLab, St. Louis, MO, USA).

[3] = tested on: MT4 cells; experiment: Cytotoxicity test; format: cell-based; conditions: for СС50 (MT4): Table S12, nine days; for CC50: Figure 7
Method: as §1, §2

[4] = tested on: HIV-1 strain NL4-3 in MT4 cells; experiment: Cytopathic effect inhibition test; format: cell-based; conditions: HIV-1 NL4-3, MT4 cells
Method: Human T cell leukemia (MT4) cell line was maintained in RPMI-1640 (“Chumakov FSC R&D IBP RAS”, Moscow, Russia) with 10% of fetal bovine serum (FBS, Invitrogen, Waltham, MA, USA), L-glutamine and gentamicin. Green monkey kidney (Vero, Beach, FL, USA) cell line was maintained in 2 × Eagle MEM (“Chumakov FSC R&D IBP RAS”, Russia) with 5% FBS with L-glutamine, penicillin and streptomycin. Cell cultures were incubated in the present of 5% CO2 at 37 °C. HIV-1 strain NL4-3 was obtained via cell transfection with pNL4-3 3 (ARP2006, NIBSC, Potters Bar, UK).
Eight two-fold dilutions of stock solutions of the compounds in two replicates were prepared in RPMI-1640 (“Chumakov FSC R&D IBP RAS”, Russia). Compound dilutions were mixed with equal volumes of the virus suspension containing 100 CCID50 (50% tissue culture infectious dose). Control cells were treated with the same sequential concentrations of DMSO as in compound dilutions. Then, the MT4 cell suspension (approx. 2 × 10^4 cells per well) in RPMI-1640 containing 10% FBS (Invitrogen, South America) was added to experimental mixtures. A final concentration series started from 25 μM. Each experiment contained virus dose titration in the inoculate to assure the acceptable dose-range. After a nine-day incubation (5% CO2, at 37 °C), cytopathic effect (CPE) was visually accessed via microscope. EC50 values were calculated according to the Karber method. All experimental procedures were performed in two replicates and were repeated two to four times. Mean and SD were calculated with OriginPro 8 (OriginLab, St. Louis, MO, USA).

[5] = Table S12, CPE, nine-day incubation, read-out: EC50
[6] = Figure 7, read-out: Antiviral activity EC50 (HIV)

## COc1cc(/C=C2N=C(/C=C/c3cc(Br)c(O)c(Br)c3)N(CCN)C\2=O)cc(OC)c1O.Cl [AR559]
[1]
  LTR-III (average): 1,2 °C
[2]
  CC50 at 9 days: > 25 µM
[3]
  СС50 (MT4): > 25 µM

## Cc1cn([C@H]2C[C@H](N=[N+]=[N-])[C@@H](CO)O2)c(=O)[nH]c1=O [AZT, reference compound]
[4]; [5]
  EC50: 0.0071 ± 0.00043 µM
[3]
  СС50 (MT4): 8.0 ± 1.5 µM

## COc1ccc(C=C2N=C(CC(C)C)C(=O)N(OC)C2=O)cc1 [M 802]
[1]
  LTR III stabilization: < 1 °C
  LTR-III ΔTm: -2.3 °C
  LTR-III (average): -2,3 °C
[3]
  CC50: 7 ± 3 µM
  СС50 (MT4): 6.6 ± 3.1 µM

## COc1ccc(OC)c(C=C2N=C(C)N(C)C2=O)c1 [N 840]
[1]
  LTR III stabilization: < 1 °C
  LTR-III ΔTm: -2.5 °C
  LTR-III (average): -1,55 °C
[3]
  CC50: > 25 µM
  СС50 (MT4): > 25 µM

## COc1cc(C=CC2=NC(=Cc3ccc(O)cc3)C(=O)N2C)cc(OC)c1O [N 906]
[1]
  LTR III stabilization: < 1 °C
  LTR-III ΔTm: 0.1 °C
  LTR-III (average): 0,1 °C
[3]
  CC50: 7 ± 3 µM
  СС50 (MT4): 6.6 ± 3.1 µM

## COc1cc(O)ccc1C=C1N=C(C=Cc2c(F)c(F)c(F)c(F)c2F)N(C)C1=O [N 1049]
[1]
  LTR-III ΔTm: 1.8 °C
  LTR-III (average): 1,8 °C
[4]; [6]
  EC50: 2 ± 1 µM
[4]; [5]
  EC50: 2.1 ± 1.4 µM
[3]
  CC50: 5 ± 3 µM
  СС50 (MT4): 5.2 ± 2.5 µM

## COc1c(O)ccc(C=C2N=C(C=Cc3ccncc3)N(C)C2=O)c1O [N 1069]
[1]
  LTR-III ΔTm: 2.7 °C
  LTR-III (average): 2,7 °C
[4]; [6]
  EC50: 4 ± 2 µM
[4]; [5]
  EC50: 4.23 ± 1.75 µM
[3]
  CC50: 6 ± 2 µM
  СС50 (MT4): 6.0 ± 2.0 µM

## COc1cc(O)ccc1/C=C1N=C(/C=C/N(C)C)N(C)C\1=O [N 1122]
[1]
  LTR-III ΔTm: 2.3 °C
  LTR-III (average): 2,3 °C
[3]
  CC50: > 25 µM
  СС50 (MT4): > 25 µM

## COc1ccc(C=C2N=C(C)N(CC(N)=O)C2=O)cc1 [SA 120]
[1]
  LTR III stabilization: < 1 °C
  LTR-III ΔTm: -2.1 °C
  LTR-III (average): -1,35 °C
[3]
  CC50: > 25 µM
  СС50 (MT4): > 25 µM

## CN1C(=O)C(=Cc2ccc(OCc3ccccc3)cc2)N=C1C(C)(C)C [X 20]
[1]
  LTR-III ΔTm: -0.2 °C

## CN1C(=O)C(=Cc2ccc(O)cc2)N=C1CCCCCNC(=O)OC(C)(C)C [X 21]
[1]
  LTR-III ΔTm: -0.1 °C

## COc1ccc(CN(C(C)=O)C(C)C2=NC(=Cc3ccc(O)cc3)C(=O)N2C)cc1 (stereo not shown) [X 23]
[1]
  LTR-III ΔTm: 0.5 °C

## O=C1NC(c2ccccc2)=NC1=Cc1ccc(O)cc1 [X 24]
[1]
  LTR-III ΔTm: -0.5 °C

## O=C(O)c1ccc(-c2ccccc2)cc1 [X 26]
[1]
  LTR-III ΔTm: -0.1 °C

## CNC(=O)C(N)C(O)c1ccc(OCc2ccccc2)cc1 (stereo not shown) [X 27]
[1]
  LTR-III ΔTm: -0.1 °C

## CC(=O)NC(=Cc1ccc([N+](=O)[O-])cc1)C(=O)NC1CCCCC1 [X 28]
[1]
  LTR-III ΔTm: -0.3 °C

## CNC(=O)C(=Cc1ccc(O)c(CO)c1)NC(=O)c1ccccc1 [X 29]
[1]
  LTR-III ΔTm: -0.6 °C

## CC1=NC(=Cc2ccccc2)C(=O)N1Cc1ccccc1 [ZS142]
[1]
  LTR-III ΔTm: -1.4 °C

## COc1ccc(N)cc1C=C1N=C(C)N(C)C1=O [ZS 62]
[1]
  LTR-III ΔTm: 0 °C

## CC1=NC(=Cc2ccncc2)C(=O)N1CC(=O)O [ZS 69]
[1]
  LTR-III ΔTm: -0.4 °C

## COc1ccc(C(N)=C2N=C(C)N(C)C2=O)cc1 [ZS 99]
[1]
  LTR-III ΔTm: -0.2 °C

## CC1=NC(=C(N)c2ccccc2)C(=O)N1C [ZS 109]
[1]
  LTR-III ΔTm: -0.7 °C

## COc1ccc(C=C2N=C(C)N(Cc3ccccc3)C2=O)cc1 [ZS 128]
[1]
  LTR-III ΔTm: -0.3 °C

## COc1ccc(C=C2N=C(C)N(C3CCCCC3)C2=O)cc1 [ZS 129]
[1]
  LTR-III ΔTm: -0.2 °C

## CC1=NC(=Cc2ccc([N+](=O)[O-])cc2)C(=O)N1Cc1ccccc1 [ZS 143]
[1]
  LTR-III ΔTm: -0.9 °C

## CC1=NC(=Cc2ccc([N+](=O)[O-])cc2)C(=O)N1C1CCCCC1 [ZS 146]
[1]
  LTR-III ΔTm: 0.2 °C

## NC(=C1N=C2C=CC=CN2C1=O)c1ccccc1 [ZS 167]
[1]
  LTR-III ΔTm: -0.1 °C

## CC1=NC(=Cc2ccc(O)cc2Br)C(=O)N1C [ZS 174]
[1]
  LTR-III ΔTm: -0.3 °C

## CC1=NC(=C(N)c2ccc(Cl)cc2)C(=O)N1C [ZS 178]
[1]
  LTR-III ΔTm: -0.3 °C

## CN(C)C=CC1=NC(=C(N)c2ccccc2)C(=O)N1C [ZS 182]
[1]
  LTR-III ΔTm: 0 °C

## CC1=NC(=C(N)c2ccc(Br)cc2)C(=O)N1C [ZS 190]
[1]
  LTR-III ΔTm: -0.5 °C

## COC(=O)c1ccc(C(N)=C2N=C(C)N(C)C2=O)cc1 [ZS 199]
[1]
  LTR-III ΔTm: -0.4 °C

## NC(=C1N=C2C=CC=CN2C1=O)c1ccc(Cl)cc1 [ZS 228]
[1]
  LTR-III ΔTm: 0.3 °C

## CN1C(=O)C(=Cc2ccc(O)cc2)N=C1C=Cc1ccccc1 [ccA 1]
[1]
  LTR-III ΔTm: 0.6 °C

## CN1C(=O)/C(=C/c2ccc(O)cc2)N=C1/C=C/c1ccc(O)cc1 [ccA 2]
[1]
  LTR-III ΔTm: 0.4 °C

## CN1C(=O)C(=Cc2ccc(O)cc2)N=C1C=CC=Cc1ccccc1 [ccA 4]
[1]
  LTR-III ΔTm: 0.8 °C

## CN1C(=O)C(=Cc2ccc(O)cc2)N=C1C=Cc1ccc(Br)cc1 [ccA 7]
[1]
  LTR-III ΔTm: 0.8 °C

## CC=CC=CC1=NC(=Cc2ccc(O)cc2)C(=O)N1C [ccA 8]
[1]
  LTR-III ΔTm: 0.2 °C

## CN1C(=O)C(=Cc2ccc(O)cc2)N=C1C=Cc1ccncc1 [ccA 9]
[1]
  LTR-III ΔTm: 0.3 °C

## CN1C(=O)C(=Cc2ccc(O)cc2)N=C1C=Cc1ccc(O)c(Br)c1 [ccA 10]
[1]
  LTR-III ΔTm: 0.7 °C

## CN1C(=O)C(=Cc2ccc(O)cc2)N=C1C=Cc1ccc(O)c([N+](=O)[O-])c1 [ccA 11]
[1]
  LTR-III ΔTm: 0.1 °C

## CN1C(=O)C(=Cc2ccc(O)cc2)N=C1C=Cc1cc(Br)c(O)c(Br)c1 [ccA 12]
[1]
  LTR-III ΔTm: 0.2 °C

## CN1C(=O)C(=Cc2ccc(O)cc2)N=C1C=Cc1ccccc1O [ccA 15]
[1]
  LTR-III ΔTm: 0.5 °C

## CN1C(=O)C(=Cc2ccc(O)cc2)N=C1C=Cc1ccc(C(=O)O)cc1 [ccA 16]
[1]
  LTR-III ΔTm: 0.8 °C

## CN1C(=O)C(=Cc2ccc(O)cc2)N=C1C=Cc1ccccc1F [ccA 18]
[1]
  LTR-III ΔTm: 0.1 °C

## CN1C(=O)C(=Cc2ccc(O)cc2)N=C1C=Cc1cccs1 [ccA 19]
[1]
  LTR-III ΔTm: -0.1 °C

## COc1ccccc1C=CC1=NC(=Cc2ccc(O)cc2)C(=O)N1C [ccA 20]
[1]
  LTR-III ΔTm: 0.4 °C

## CN1C(=O)C(=Cc2ccc(O)cc2)N=C1C=Cc1ccc(N(C)C)cc1 [ccA 22]
[1]
  LTR-III ΔTm: 0.3 °C

## CNC(=O)c1cc(/C=C2N=C(/C=C/c3cccs3)N(C)C\2=O)ccc1O [ccD 1]
[1]
  LTR-III ΔTm: 0.7 °C

## CNC(=O)c1cc(C=C2N=C(C=Cc3cc(Br)c(O)c(Br)c3)N(C)C2=O)ccc1O [ccD 2]
[1]
  LTR-III ΔTm: 0.2 °C

## CC(=O)NCCN1C(=O)C(=Cc2ccc(O)cc2)N=C1C=Cc1ccc(O)cc1 [ccE 2]
[1]
  LTR-III ΔTm: -0.1 °C

## COc1ccc(/C=C/C2=NC(=C\c3ccc(O)cc3)/C(=O)N2CCNC(C)=O)cc1 [ccE 4]
[1]
  LTR-III ΔTm: 2.8 °C
  LTR-III (average): 2,8 °C
[3]
  CC50: > 25 µM
  СС50 (MT4): > 25 µM

## COc1ccccc1C=CC1=NC(=Cc2ccc(O)cc2)C(=O)N1CCNC(C)=O [ccE 7]
[1]
  LTR-III ΔTm: 0.3 °C
